Source: patent publication US20110190309A1, “PHARMACEUTICAL PRODUCT COMPRISING A […] RECEPTOR ANTAGONIST AND A Beta2-ADRENOCEPTOR AGONIST” (priority 2008, published 2011)
Where a name gives a salt, the structure may show the parent alone.

What was measured:
β2 = target: T1, β2 (Homo sapiens, UniProt P07550); experiment: Adrenergic β2 mediated cAMP production in H292 cells (AlphaScreen); type: cell-based; conditions: Intrinsic Activity as a fraction relative to the maximum activity of formoterol
T1 construct: endogenous in cells; host or cells: H292 cells
T1 sequence (P07550 whole entry): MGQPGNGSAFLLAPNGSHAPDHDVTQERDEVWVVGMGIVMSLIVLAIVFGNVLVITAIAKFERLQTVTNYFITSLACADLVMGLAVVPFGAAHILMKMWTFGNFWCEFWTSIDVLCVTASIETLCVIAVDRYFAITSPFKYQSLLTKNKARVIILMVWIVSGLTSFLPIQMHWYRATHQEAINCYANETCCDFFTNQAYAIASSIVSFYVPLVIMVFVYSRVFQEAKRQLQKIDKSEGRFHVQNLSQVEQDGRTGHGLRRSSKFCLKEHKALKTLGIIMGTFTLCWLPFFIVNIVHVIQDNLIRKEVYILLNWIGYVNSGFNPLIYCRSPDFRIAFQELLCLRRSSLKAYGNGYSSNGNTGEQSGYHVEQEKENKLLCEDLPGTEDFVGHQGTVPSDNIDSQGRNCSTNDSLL
Protocol: H292 cells were grown in 225 cm2 flasks incubator at 37° C., 5% CO2 in RPMI medium containing, 10% (v/v) FBS (foetal bovine serum) and 2 mM L-glutamine.
Adherent H292 cells were removed from tissue culture flasks by treatment with Accutase™ cell detachment solution for 15 minutes. Flasks were incubated for 15 minutes in a humidified incubator at 37° C., 5% CO2. Detached cells were re-suspended in RPMI media (containing 10% (v/v) FBS and 2 mM L-glutamine) at 0.05×10^6 cells per mL. 5000 cells in 100 μL were added to each well of a tissue-culture-treated 96-well plate and the cells incubated overnight in a humidified incubator at 37° C., 5% CO2. The culture media was removed and cells were washed twice with 100 μL assay buffer and replaced with 50 μL assay buffer (HBSS solution containing 10 mM HEPES pH7.4 and 5 mM glucose). Cells were rested at room temperature for 20 minutes after which time 25 μL of rolipram (1.2 mM made up in assay buffer containing 2.4% (v/v) dimethylsulphoxide) was added. Cells were incubated with rolipram for 10 minutes after which time Compound A was added and the cells were incubated for 60 minutes at room temperature. The final rolipram concentration in the assay was 300 μM and final vehicle concentration was 1.6% (v/v) dimethylsulphoxide. The reaction was stopped by removing supernatants, washing once with 100 μL assay buffer and replacing with 50 μL lysis buffer. The cell monolayer was frozen at −80° C. for 30 minutes (or overnight).
The concentration of cAMP (cyclic adenosine monophosphate) in the cell lysate was determined using AlphaScreen™ methodology. […] The AlphaScreen™ signal was measured using an EnVision spectrophotometer (Perkin-Elmer Inc.) with the recommended manufacturer's settings. cAMP concentrations were determined by reference to a calibration curve determined in the same experiment using standard cAMP concentrations. […] Intrinsic Activity was expressed as a fraction relative to the maximum activity determined for formoterol in each experiment.

guinea pig trachea = experiment: Bronchodilator activity in the guinea pig isolated tracheal ring preparation; conditions: 10 nM; methacholine 1 μM; 60 min; mean±s.e.mean
Protocol: Guinea pigs (300-500 g) were killed by cervical dislocation and the trachea was isolated. The trachea was cut into segments 2-3 cartilage rings in width and suspended in 10 ml organ baths in modified Krebs' solution (mM; NaCl, 90; NaHCO3, 45; KCl, 5; MgSO4.7H2O, 0.5; Na2HPO4.2H2O, 1; CaCl2, 2.25; glucose, 10; pH 7.4 gassed with 5% CO2, 95% O2 at 37° C.). The tracheal rings were attached to an isometric force transducer for the measurement of isometric tension. The tissues were washed and a force of 1 g was applied to each tissue. The rings were contracted with methacholine (1 μM). Once the contraction had reached a plateau, vehicle (0.01% DMSO in distilled H2O), indacaterol (10 nM), N-[2-(Diethylamino)ethyl]-N-(2-{[2-(4-hydroxy-2-oxo-2,3-dihydro-1,3-benzothiazol-7-yl)ethyl]amino}ethyl)-3-[2-(1-naphthyl)ethoxy]propanamide dihydrobromide (10 nM), N-Cyclohexyl-N^3-[2-(3-fluorophenyl)ethyl]-N-(2-{[2-(4-hydroxy-2-oxo-2,3-dihydro-1,3-benzothiazol-7-yl)ethyl]amino}ethyl)-(3-alaninamide di-D-mandelate salt (1 nM), (R)-3-(1-Phenyl-cycloheptanecarbonyloxy)-1-(pyridin-2-ylcarbamoylmethyl)-1-azonia-bicyclo[2.2.2]octane bromide (1 nM), a combination of (R)-3-(1-Phenyl-cycloheptanecarbonyloxy)-1-(pyridin-2-ylcarbamoylmethyl)-1-azonia-bicyclo[2.2.2]octane bromide (1 nM) and indacaterol (10 nM), a combination of N-[2-(Diethylamino)ethyl]-N-(2-{[2-(4-hydroxy-2-oxo-2,3-dihydro-1,3-benzothiazol-7-yl)ethyl]amino}ethyl)-3-[2-(1-naphthyl)ethoxy]propanamide dihydrobromide (10 nM) and (R)-3-(1-Phenyl-cycloheptanecarbonyloxy)-1-(pyridin-2-ylcarbamoylmethyl)-1-azonia-bicyclo[2.2.2]octane bromide (1 nM) and, or a combination of N-Cyclohexyl-N^3-[2-(3-fluorophenyl)ethyl]-N-(2-{[2-(4-hydroxy-2-oxo-2,3-dihydro-1,3-benzothiazol-7-yl)ethyl]amino}ethyl)-β-alaninamide di-D-mandelate salt (1 nM) and (R)-3-(1-Phenyl-cycloheptanecarbonyloxy)-1-(pyridin-2-ylcarbamoylmethyl)-1-azonia-bicyclo[2.2.2]octane bromide (1 nM) was added and the tissue left for 60 min. The tension was measured in each ring at 60 min following compound addition and was expressed as a % relaxation of the constriction to methacholine (1 μM) (mean±s.e.mean). Data were collected using the Chart 4 software (ADInstruments, Charlgrove, UK).

Row | SMILES | β2 Int Act (β2) | percentage relaxation of the constriction to methacholine (guinea pig trachea)
1 | CCN(CC)CCN(CCNCCc1ccc(O)c2[nH]c(=O)sc12)C(=O)CCOCCc1cccc2ccccc12 [BA1, N-[2-(Diethylamino)ethyl]-N-(2-{[2-(4-hydroxy-2-oxo-2,3-dihydro-1,3-benzothiazol-7-yl)ethyl]amino}ethyl)-3-[2-(1-naphthyl)ethoxy]propanamide dihydrobromide] | 0.8 | 18±11.2%
2 | O=c1[nH]c2c(O)ccc([C@@H](O)CNCCSCCCNCCc3ccccc3Cl)c2s1 [BA3, 7-[(1R)-2-({2-[(3-{[2-(2-Chlorophenyl)ethyl]amino}propyl)thio]ethyl}amino)-1-hydroxyethyl]-4-hydroxy-1,3-benzothiazol-2(3H)-one dihydrobromide] | 0.8 | 
3 | CCN(CC)CCN(CCNCCc1ccc(O)c2[nH]c(=O)sc12)C(=O)CCOCCc1cccc(Cl)c1 [BA2, N-[2-(Diethylamino)ethyl]-N-(2-{[2-(4-hydroxy-2-oxo-2,3-dihydro-1,3-benzothiazol-7-yl)ethyl]amino}ethyl)-3-[2-(3-chlorophenyl)ethoxy]propanamide dihydrobromide] | 0.7 | 
